Laboratory results published in ChEMBL document CHEMBL5126640, “Sanggenon C Suppresses Tumorigenesis of Gastric Cancer by Blocking ERK-Drp1-Mediated Mitochondrial Fission” (J Nat Prod, 2022).
Calls of active or inactive are those of the source. The rule behind the calls is not given here.

Tests used:
[1] = system: HGC-27; experiment: Induction of apoptosis in human HGC-27 cells assessed as increase in cleaved caspase-9 level at 0 to 10 uM by Western blot analysis; format: functional, cell-based; conditions: dose 0-10 µM
[2] = system: AGS; experiment: Induction of apoptosis in human AGS cells assessed as early apoptotic cells at 6 uM measured after 24 hrs by AnnexinV-FITC/PI staining based flowcytometry method (reference value: 1.2%); format: functional
[3] = system: AGS; experiment: Inhibition of ERK signalling pathway in human AGS cells assessed as downregulation of p-ERK levels at 0 to 10 uM and measured after 24 hrs by western blot analysis; format: cell-based; conditions: dose 0-10 µM
[4] = system: AGS; experiment: Induction of apoptosis in human AGS cells assessed as late apoptotic cells at 6 uM measured after 24 hrs by AnnexinV-FITC/PI staining based flowcytometry method (reference value: 3.4%); format: functional
[5] = system: AGS; experiment: Induction of apoptosis in human AGS cells assessed as late apoptotic cells measured after 24 hrs by AnnexinV-FITC/PI staining based flow cytometry method (reference value: 2.4%); format: functional
[6] = system: AGS; experiment: Inhibition of mitochondrial fission in human AGS cells assessed as downregulation of p-DRP1 at 0 to 10 uM measured after 24 hrs by Western blot analysis; format: functional, cell-based; conditions: dose 0-10 µM
[7] = system: HGC-27; experiment: Induction of cell cycle arrest in human HGC-27 cells assessed as accumulation of cells at G0/G1 phase at 10 uM incubated for 24 hrs propidium iodide staining-based flow cytometric analysis (reference value: 45.21%); format: functional
[8] = system: HGC-27; experiment: Inhibition of mitochondrial fission in human HGC-27 cells assessed as downregulation of p-DRP1 at 0 to 10 uM measured after 24 hrs by Western blot analysis; format: functional, cell-based; conditions: dose 0-10 µM
[9] = system: HGC-27; experiment: Inhibition of mitochondrial fission in human HGC-27 cells assessed as reduction in ATP content at 0 to 10 uM measured after 24 hrs by microplate reader assay; format: functional, cell-based; conditions: dose 0-10 µM
[10] = system: AGS; experiment: Induction of apoptosis in human AGS cells assessed as late apoptotic cells at 10 uM measured after 24 hrs by AnnexinV-FITC/PI staining based flowcytometry method (reference value: 3.4%); format: functional
[11] = Toxicity in nude mouse xenografted with human AGS cells assessed as effect on kidney morphology at 10 to 20 mg/kg, ip administered every other day and monitored every 3 days by Hematoxyin-eosin staining based analysis; format: organism-based; conditions: in vivo, 72 h, dose 10-20 mg/kg, time 3 day
[12] = Toxicity in nude mouse xenografted with human AGS cells assessed as effect on body weight at 10 to 20 mg/kg, ip administered every other day and monitored every 3 days; format: organism-based; conditions: in vivo, 72 h, dose 10-20 mg/kg, time 3 day
[13] = system: AGS; experiment: Induction of apoptosis in human AGS cells assessed as viable cells at 8 uM measured after 24 hrs by AnnexinV-FITC/PI staining based flowcytometry method (reference value: 95.2%); format: functional; conditions: read-out: Activity
[14] = system: AGS; experiment: Induction of apoptosis in human AGS cells transfected with pcDNA3.1-Drp1 plasmid to overexpress DRP1 assessed as viable cells and measured after 24 hrs by AnnexinV-FITC/PI staining based flow cytometry method (reference value: 95.6 %); format: functional
[15] = system: AGS; experiment: Induction of apoptosis in human AGS cells assessed as necrotic cells at 10 uM measured after 24 hrs by AnnexinV-FITC/PI staining based flowcytometry method (reference value: 0.2%); format: functional
[16] = system: AGS; experiment: Induction of apoptosis in human AGS cells assessed as viable cells measured after 24 hrs by AnnexinV-FITC/PI staining based flow cytometry method (reference value: 95.4 %); format: functional
[17] = system: AGS; experiment: Inhibition of colony formation of human AGS cells assessed as reduction in colony number at 0 to 10 uM measured after 24 hrs by crystal violet staining assay; format: functional, cell-based; conditions: dose 0-10 µM
[18] = system: HGC-27; experiment: Induction of apoptosis in human HGC-27 cells transfected with pcDNA3.1-Drp1 plasmid to overexpress DRP1 assessed as viable cells measured after 24 hrs by AnnexinV-FITC/PI staining based flow cytometry method (reference value: 95.8%); format: functional
[19] = system: AGS; experiment: Induction of apoptosis in human AGS cells assessed as early apoptotic cells measured after 24 hrs by AnnexinV-FITC/PI staining based flow cytometry method (reference value: 2%); format: functional
[20] = system: HGC-27; experiment: Induction of apoptosis in human HGC-27 cells assessed as viable cells at 10 uM measured after 24 hrs by AnnexinV-FITC/PI staining based flowcytometry method (reference value: 91.1%); format: functional; conditions: read-out: Activity
[21] = system: AGS; experiment: Induction of cell cycle arrest in human AGS cells assessed as decrease in Cyclin D1 level at 0 to 10 uM by Western blot analysis; format: functional, cell-based; conditions: dose 0-10 µM
[22] = Toxicity in nude mouse xenografted with human AGS cells assessed as effect on lung morphology at 10 to 20 mg/kg, ip administered every other day and monitored every 3 days by Hematoxyin-eosin staining based analysis; format: organism-based; conditions: in vivo, 72 h, dose 10-20 mg/kg, time 3 day
[23] = system: HGC-27; experiment: Induction of apoptosis in human HGC-27 cells assessed as downregulation of Bcl-2 level at 0 to 10 uM by Western blot analysis; format: functional, cell-based; conditions: dose 0-10 µM
[24] = system: HGC-27; experiment: Induction of cell cycle arrest in human HGC-27 cells assessed as decrease in Cyclin D1 level at 0 to 10 uM by Western blot analysis; format: functional, cell-based; conditions: dose 0-10 µM
[25] = system: AGS; experiment: Induction of apoptosis in human AGS cells assessed as viable cells at 10 uM measured after 24 hrs by AnnexinV-FITC/PI staining based flowcytometry method (reference value: 95.2%); format: functional; conditions: read-out: Activity
[26] = system: AGS; experiment: Antitumor activity against human AGS cells xenografted in nude mouse assessed as suppression of tumor burden at 10 to 20 mg/kg, ip administered every other day and monitored every 3 days; format: functional, organism-based; conditions: dose 10-20 mg/kg, time 3.0 day
[27] = system: HGC-27; experiment: Inhibition of mitochondrial fission in human HGC-27 cells assessed as reduction in mitochondrial elongated fragments at 0 to 6 uM measured after 24 hrs by mitotracker based confocal microscopy; format: functional, cell-based; conditions: dose 0-6 µM
[28] = system: HGC-27; experiment: Induction of apoptosis in human HGC-27 cells assessed as viable cells measured after 24 hrs by AnnexinV-FITC/PI staining based flow cytometry method (reference value: 96.6%); format: functional
[29] = system: HGC-27; experiment: Induction of apoptosis in human HGC-27 cells assessed as late apoptotic cells measured after 24 hrs by AnnexinV-FITC/PI staining based flow cytometry method (reference value: 1.6%); format: functional
[30] = system: AGS; experiment: Induction of apoptosis in human AGS cells assessed as downregulation of Bcl-2 level at 0 to 10 uM by Western blot analysis; format: functional, cell-based; conditions: dose 0-10 µM
[31] = system: HGC-27; experiment: Induction of apoptosis in human HGC-27 cells assessed as upregulation of Bax level at 0 to 10 uM by Western blot analysis; format: functional, cell-based; conditions: dose 0-10 µM
[32] = Toxicity in nude mouse xenografted with human AGS cells assessed as effect on alanine aminotransferase level at 10 to 20 mg/kg, ip administered every other day and monitored every 3 days; format: organism-based; conditions: in vivo, 72 h, dose 10-20 mg/kg, time 3 day
[33] = system: HGC-27; experiment: Induction of cell cycle arrest in human HGC-27 cells assessed as accumulation of cells at G0/G1 phase at 6 uM incubated for 24 hrs propidium iodide staining-based flow cytometric analysis (reference value: 45.21%); format: functional
[34] = system: HGC-27; experiment: Inhibition of mitochondrial fission in human HGC-27 cells assessed as reduction in punctiform mitochondria at 0 to 6 uM measured after 24 hrs by mitotracker based confocal microscopy; format: functional; conditions: dose 0-6 µM
[35] = system: HGC-27; experiment: Induction of apoptosis in human HGC-27 cells assessed as late apoptotic cells at 10 uM measured after 24 hrs by AnnexinV-FITC/PI staining based flowcytometry method (reference value: 5.4%); format: functional

With `CC(C)=CCC12Oc3cc(O)ccc3C1(O)Oc1cc(O)c([C@H]3C=C(C)C[C@H](c4ccc(O)cc4O)[C@H]3C(=O)c3ccc(O)cc3O)c(O)c1C2=O` (stereo not given in full) the Activity [1] was “Active”, the Activity [2] was 1.7% and the inhibition [3] was “Active”. The Activity [4] was 7.9%, the Activity [5] was 7.6% and the inhibition [6] was “Active”. The Activity [7] was 64.2%, the inhibition [8] was “Active” and the inhibition [9] was “Active”. The Activity [10] was 15.3%, the Activity [11] was “Non-Toxic” and the Activity [12] was “Non-Toxic”. It also gave a viability at 8 µM [13] of 89.8%, an Activity [14] of 90.3% and an Activity [15] of 0.3%. For the same molecule, the Activity [16] was 88.8%, the inhibition [17] was “Active” and the Activity [18] was 95.4%. For the same molecule, the Activity [19] was 3.5%, the viability at 10 µM [20] was 72.4% and the Activity [21] was “Active”. The Activity [22] was “Non-Toxic”, the Activity [23] was “Active” and the Activity [24] was “Active”. The viability at 10 µM [25] was 81.2%, the Activity [26] was “Active” and the inhibition [27] was “Active”. For the same molecule, the Activity [28] was 91.3%, the Activity [29] was 3.9% and the Activity [30] was “Active”. The Activity [31] was “Active”, the Activity [32] was “Non-Toxic” and the Activity [33] was 61.3%. The inhibition [34] was “Active” and the Activity [35] was 15.9%.
